PubChem BioAssay AID248 (DTP/NCI, 2004)
Where “and” joins values, the source holds several entries; their conditions need not be identical. Equal entries are not always repeated. Toxic doses and inconclusive results are not listed. No stated cut-off is given here; in the data, active means T/C of 150% or more; inactive means T/C below 125%.

Tested on: L1210 leukemia ip in BDF1 mice, survival T/C
Experiment: NCI In Vivo Anticancer Drug Screen. Data for tumor model L1210 Leukemia (intraperitoneal) in B6D2F1 (BDF1) mice
Details: endpoint: mean survival time, higher = longer survival
Outline: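 Transplanted-tumor mice were given test agent; controls received vehicle only. Survival readings from the two groups were divided (treated over control).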

[1] = dose: 100.0 mg/kg/injection, schedule: Q01DX009 (ip), vehicle: saline with Tween-80
[2] = dose: 200.0 mg/kg/injection, schedule: Q01DX009 (ip), vehicle: saline with Tween-80
[3] = dose: 100.0 mg/kg/injection, schedule: Q01DX001 (ip), vehicle: Klucel (hydroxypropylcellulose) (HPC)
[4] = dose: 200.0 mg/kg/injection, schedule: Q01DX001 (ip), vehicle: Klucel (hydroxypropylcellulose) (HPC)
[5] = dose: 400.0 mg/kg/injection, schedule: Q01DX001 (ip), vehicle: Klucel (hydroxypropylcellulose) (HPC)
[6] = dose: 100.0 mg/kg/injection, schedule: Q01DX001 (ip), vehicle: saline
[7] = dose: 200.0 mg/kg/injection, schedule: Q01DX001 (ip), vehicle: saline
[8] = dose: 100.0 mg/kg/injection, schedule: Q01DX009 (ip), vehicle: Klucel (hydroxypropylcellulose) (HPC)
[9] = dose: 200.0 mg/kg/injection, schedule: Q01DX009 (ip), vehicle: Klucel (hydroxypropylcellulose) (HPC)
[10] = dose: 400.0 mg/kg/injection, schedule: Q01DX009 (ip), vehicle: Klucel (hydroxypropylcellulose) (HPC)
[11] = dose: 100.0 mg/kg/injection, schedule: Q04DX003 (ip), vehicle: Klucel (hydroxypropylcellulose) (HPC)
[12] = dose: 200.0 mg/kg/injection, schedule: Q04DX003 (ip), vehicle: Klucel (hydroxypropylcellulose) (HPC)
[13] = dose: 400.0 mg/kg/injection, schedule: Q04DX003 (ip), vehicle: Klucel (hydroxypropylcellulose) (HPC)
[14] = dose: 100.0 mg/kg/injection, schedule: Q04DX002 (ip), vehicle: Klucel (hydroxypropylcellulose) (HPC)
[15] = dose: 200.0 mg/kg/injection, schedule: Q04DX002 (ip), vehicle: Klucel (hydroxypropylcellulose) (HPC)
[16] = dose: 400.0 mg/kg/injection, schedule: Q04DX002 (ip), vehicle: Klucel (hydroxypropylcellulose) (HPC)

Measured: T/C

c1ccc(CCCSc2ccccc2)cc1
inactive: [1] 120 % of control | dose: 100.0 mg/kg/injection, schedule: Q04DX003 (ip), vehicle: saline with Tween-80 108 % of control | [2] 104 % of control | dose: 200.0 mg/kg/injection, schedule: Q04DX003 (ip), vehicle: saline with Tween-80 94 % of control | dose: 400.0 mg/kg/injection, schedule: Q04DX003 (ip), vehicle: saline with Tween-80 100 % of control

CCCCOC(=O)Nc1cc(Cl)ccc1C
inactive: dose: 100.0 mg/kg/injection, schedule: Q01DX001 (ip), vehicle: gum acacia 95 % of control | dose: 200.0 mg/kg/injection, schedule: Q01DX001 (ip), vehicle: gum acacia 96 % of control | dose: 400.0 mg/kg/injection, schedule: Q01DX001 (ip), vehicle: gum acacia 98 % of control

CCCC#CC(=O)OCC
inactive: dose: 100.0 mg/kg/injection, schedule: Q04DX002 (ip), vehicle: saline 91 % of control | dose: 200.0 mg/kg/injection, schedule: Q04DX002 (ip), vehicle: saline 97 % of control | dose: 400.0 mg/kg/injection, schedule: Q04DX002 (ip), vehicle: saline 89 % of control

S=C(NNc1ccccc1)Nc1ccccc1
inactive: [3] 93 % of control | [4] 103 % of control | [5] 95 % of control

C[N+](C)(C)CCOC(=O)c1cccc(CBr)c1CBr
inactive: dose: 6.25 mg/kg/injection, schedule: Q01DX009 (ip), vehicle: saline 103 % of control | dose: 6.25 mg/kg/injection, schedule: Q04DX003 (ip), vehicle: saline 104 % of control | dose: 12.5 mg/kg/injection, schedule: Q01DX009 (ip), vehicle: saline 97 % of control | dose: 12.5 mg/kg/injection, schedule: Q04DX003 (ip), vehicle: saline 98 % of control | dose: 25.0 mg/kg/injection, schedule: Q01DX009 (ip), vehicle: saline 97 % of control | dose: 25.0 mg/kg/injection, schedule: Q04DX003 (ip), vehicle: saline 104 % of control

CC(C)(C)c1cc(/C=N/NC(=O)CC2CCCCC2)cc(C(C)(C)C)c1O
inactive: [1] 92 % of control | [2] 92 % of control | dose: 400.0 mg/kg/injection, schedule: Q01DX009 (ip), vehicle: saline with Tween-80 97 % of control

CS(=O)(=O)OCC#CCOS(C)(=O)=O
inactive: dose: 8.0 mg/kg/injection, schedule: Q01DX Z (ip), vehicle: saline 100 % of control | dose: 16.0 mg/kg/injection, schedule: Q01DX Z (ip), vehicle: saline 109 % of control | dose: 32.0 mg/kg/injection, schedule: Q01DX Z (ip), vehicle: saline 105 % of control | dose: 64.0 mg/kg/injection, schedule: Q01DX Z (ip), vehicle: saline 117 % of control

Cc1ccc(S(=O)(=O)NC(CCC(=O)O)C(=O)O)cc1 (stereo unspecified)
inactive: [6] 91 % of control | dose: 100.0 mg/kg/injection, schedule: Q01DX009 (ip), vehicle: saline 93 % of control | dose: 100.0 mg/kg/injection, schedule: Q04DX003 (ip), vehicle: saline 108 % of control | [7] 102 % of control | dose: 200.0 mg/kg/injection, schedule: Q01DX009 (ip), vehicle: saline 100 % of control | dose: 200.0 mg/kg/injection, schedule: Q04DX003 (ip), vehicle: saline 103 % of control | dose: 400.0 mg/kg/injection, schedule: Q01DX009 (ip), vehicle: saline 88 % of control | dose: 400.0 mg/kg/injection, schedule: Q04DX003 (ip), vehicle: saline 106 % of control

CCCCCCCCCCCCCCOc1ccc(Cl)cc1Cl
inactive: [8] 107 % of control | [9] 100 % of control | [10] 105 % of control

COc1cc([N+](=O)[O-])ccc1NC(=O)Nc1cc(C)ccn1
inactive: [8] 100 % of control | [9] 93 % of control

CC(C)=C1C2CCC1C(CO)C2CO (stereo unspecified)
inactive: [8] 95 % of control | [11] 102 % of control | [9] 102 % of control | [12] 100 % of control | [10] 104 % of control | [13] 96 % of control

COc1ccc(CCC(C)=O)cc1
inactive: [8] 96 % of control | [11] 89 % of control | [9] 105 % of control | [12] 102 % of control | [10] 96 % of control | [13] 98 % of control

COc1ccc(OC)c(C2C(C#N)C(C=O)NC(C=O)C2C#N)c1 (stereo unspecified)
inactive: dose: 100.0 mg/kg/injection, schedule: Q04DX003 (ip), vehicle: other 107 % of control | dose: 200.0 mg/kg/injection, schedule: Q04DX003 (ip), vehicle: other 109 % of control | dose: 400.0 mg/kg/injection, schedule: Q04DX003 (ip), vehicle: other 107 % of control

CCCCCCn1c2ccccc2c2cc3cnccc3c(C)c21
inactive: dose: 37.5 mg/kg/injection, schedule: Q04DX003 (ip), vehicle: Klucel (hydroxypropylcellulose) (HPC) 97 % of control | dose: 75.0 mg/kg/injection, schedule: Q04DX003 (ip), vehicle: Klucel (hydroxypropylcellulose) (HPC) 97 % of control | dose: 150.0 mg/kg/injection, schedule: Q04DX003 (ip), vehicle: Klucel (hydroxypropylcellulose) (HPC) 102 % of control | dose: 300.0 mg/kg/injection, schedule: Q04DX003 (ip), vehicle: Klucel (hydroxypropylcellulose) (HPC) 104 % of control

S=C(Sc1nc2ccccc2s1)Sc1nc2ccccc2s1
inactive: [14] 105 % of control | [15] 94 % of control | [16] 101 % of control

COc1ccc([N+](=O)[O-])cc1NC(=O)Nc1cc(C)on1
inactive: [3] 91 % of control | [8] 96 % of control and 87 % of control | [14] 103 % of control and 91 % of control | [11] 92 % of control | [4] 95 % of control | [9] 98 % of control and 91 % of control | [15] 97 % of control and 91 % of control | [12] 89 % of control | [5] 86 % of control | [10] 95 % of control and 98 % of control | [16] 97 % of control | [13] 96 % of control

COc1cc(-c2ccc(NC(=O)Nc3ccc(C4=NCCN4)cc3)c(OC)c2)ccc1NC(=O)Nc1ccc(C2=NCCN2)cc1
inactive: dose: 15.0 mg/kg/injection, schedule: Q01DX Z (ip), vehicle: carboxymethylcellulose (CMC) 104 % of control | dose: 31.0 mg/kg/injection, schedule: Q01DX Z (ip), vehicle: carboxymethylcellulose (CMC) 98 % of control | dose: 62.5 mg/kg/injection, schedule: Q01DX Z (ip), vehicle: carboxymethylcellulose (CMC) 117 % of control | dose: 125.0 mg/kg/injection, schedule: Q01DX Z (ip), vehicle: carboxymethylcellulose (CMC) 103 % of control | dose: 250.0 mg/kg/injection, schedule: Q01DX Z (ip), vehicle: water 117 % of control | dose: 500.0 mg/kg/injection, schedule: Q01DX Z (ip), vehicle: water 87 % of control

COc1ccc(/C=C/C2=CC(=O)CC(c3ccc(OC)c(OC)c3)C2)cc1OC (stereo unspecified)
inactive: dose: 100.0 mg/kg/injection, schedule: Q04DX002 (ip), vehicle: saline with Tween-80 102 % of control | dose: 200.0 mg/kg/injection, schedule: Q04DX002 (ip), vehicle: saline with Tween-80 102 % of control | dose: 400.0 mg/kg/injection, schedule: Q04DX002 (ip), vehicle: saline with Tween-80 105 % of control

COc1ccc(/C=C2\CSC(=O)NC2=O)cc1OC
inactive: [6] 104 % of control | [7] 106 % of control | dose: 400.0 mg/kg/injection, schedule: Q01DX001 (ip), vehicle: saline 106 % of control
